Results from US7576071B2, “Antithrombotic compound” (sanofi-aventis, priority 2004, dated 2009).

Assays:
[1] = system: Bovine factor Xa; assay: Determination of anti-factor Xa activity in buffer (microtiter plate method, AT-III mediated); assay type: biochemical; conditions: Kabi buffer, human AT-III
Excerpt: II. Determination of Anti-Factor Xa Activity in Buffer
(Microtiter Plate Method)
Anticoagulants can inhibit Xa directly or, like heparin, by potentiating the inhibitory activity of AT-III. Anti-Xa activity can be assessed by determination of the rate of hydrolysis of the chromogenic substrate S-2222 in the presence of AT-III. This assay is used to determine anti-Xa activity of heparinoid preparations in Kabi buffer.
Test medium: Kabi buffer.
Ref. compound: International standard heparin (11.4 anti-Xa U/mg).
Composition of the buffer: NaCl 10.17 g (174 mmol); edetate disodium dihydrate 3.26 g (9.6 mmol); tromethamine (Tris) 6.11 g (50.4 mmol); made up to 1 L with ultrapure H2O *. The pH of the solution is adjusted to 7.4 with hydrochloric acid (0.10 mol/L)
Bovine factor Xa (Kabi Diagnostica, Stockholm, Sweden) is dissolved in Kabi buffer to give a solution containing 1.5 U/mL (0.75 nKat/mL). • 3. S-2222 solution
S-2222 (Kabi Diagnostica) is dissolved in ultrapure H2O to give a solution containing 0.375 mg/mL (0.5 mmol/L). • 4. AT-III solution
Human AT-III (Kabi Diagnostica) is dissolved in Kabi buffer to give a solution containing 0.25 U/mL. A fresh solution has to be prepared daily. • 5. Standard solution of the calibration sample
Standard heparin is dissolved in Kabi buffer to give a standard solution containing approx. 0.25 anti-Xa U/mL.
Each preparation is dissolved in ultrapure H2O and diluted with Kabi buffer to the required concentrations in the range of 0.02-0.2 anti-Xa U/mL
Each test sample (0.05 mL) is pipetted into a well of a microtiter plate at RT. AT-III solution (0.05 mL) is added to each sample and the plate is shaken using a Vari-shaker.
An aliquot of Xa solution (0.05 mL) is pipetted into each well 10 min following addition of AT-III solution and the plate is shaken again. Exactly 2 min following addition of Xa solution, 0.1 mL S-2222 solution is pipetted into each well and the plate is shaken again. For all additions a 12-channel pipette is used.
The remaining amount of Xa catalyses the hydrolysis of S-2222, the rate of which is measured photometrically following incubation periods of 2 and 22 min respectively at RT. The absorbance of each sample is measured at 405 nm using a Reader Microelisa, model 310C (Organon Teknika, Oss, The Netherlands) and the increase in absorbance (ΔOD) is calculated. Each test sample is determined in duplicate. With every 10 samples, a blank (0.05 mL Kabi buffer) is included.
From an aliquot of the standard solution of the calibration sample a range of dilutions is made (dilution factor 1,3 for heparin samples). The resulting standard samples (approx. 15 samples) should contain between 0.01-0.25 anti-Xa U/mL. […]
For each sample the mean anti-Xa activity in U/mL is determined using the calibration curve. […]

[2] = system: human platelets (platelet rich plasma), ADP-induced aggregation; assay: In vitro test for inhibition of human platelet aggregation induced by ADP; assay type: cell-based; conditions: 5 μM ADP; human PRP; mean of n experiments; entries marked b measured with a Chronolog aggregometer, others with micro plate reader; read-out: Inhibition of ADP-induced (5 μM) human platelet aggregation (IC50), mean
Excerpt: I.a. In vitro Test for Inhibition of Human Platelet Aggregation Induced by ADP
Addition of adenosine diphosphate (ADP) to human platelet rich plasma (PRP) in vitro induces platelet aggregation. This aggregation can be assessed by measuring the optical density (OD) of the PRP. The in vitro test described here was used to determine the inhibitory activity of a test compound on the ADP-induced aggregation of human platelets. A micro plate reader is used to measure the activity of several compounds simultaneously.
An alternative vehicle is 0.9% NaCl in MQ H2O. The compound solution (either in MQ H2O or 0.9% NaCl in MQ H2O) is further diluted in 0.9% NaCl in MQ H2O.
Free-flowing blood (at least 100 mL) is taken from a healthy volunteer and collected in 0.1 volume 3.8% sodium citrate. 2H2O in distilled H2O (w/v). The final concentration is 0.38% sodium citrate.
The citrated blood is centrifuged at 1,600 N/kg (160 g) at RT. After 15 min, centrifugation is discontinued with the brake turned off and the supernatant (=PRP) is collected. • 2. ADP (Kordia/Chrono-par # 384). Before use, a solution of 50 μM in 0.9% NaCl is prepared. Equipment • 1. Sysmex blood cell counter model KX-21. • 2. Labsystems iEMS reader MF with a 620 nm filter, an orbital shaker set at 1,000 rpm and a constant temperature of 37° C. Absorption is measured with the Labsystems iEMS program. • 3. Blood collection system 600 mL with needle, art P4203 (NPBI). • 4. 96 wells flat bottom micro plates (Greiner Labortechnik). Procedure
The platelets in the supernatant (PRP) are counted using a Sysmex blood cell counter and the supernatant is diluted with PPP to obtain a PRP containing 400,000±50,000 plt/μL. PRP should stabilize at RT for at least 20 min but not longer than 3 h.
150 μL PRP is pipetted into a well of the micro plate. 30 μL test compound in a range of concentrations (7 concentrations per compound) or vehicle is added and the micro plate is placed in the Labsystems iEMS reader MF at 37° C. The optical density (OD620) is then measured at 620 nm. After shaking for 2 min in the reader (1,000 rpm), the OD is measured for the second time. This is to verify the stability of the platelets (absence of spontaneous platelet aggregation). Then, 20 μL of 50 μM ADP solution is added and the OD is kinetically measured every min for 14 min at 620 nm (FIG. 1). Between two measurements, the plate is shaking for 40 seconds at 1,000 rpm. Each test compound is investigated in at least 2 experiments using PRP from different volunteers.
The mean OD at each compound concentration (including vehicle) is calculated at t=0 min and t=10 min. The percentage inhibition at each concentration is calculated using the formula: […]
The IC50 of the test compound is the concentration of the test compound at which the ADP-induced platelet aggregation is reduced by 50%. For this, the percentage inhibition values are plotted against compound concentration. Then, IC50, nH (Hill slope) and efficacy of the test compound is calculated using Graphpad Prism 3.0 (with variable slope).
Reference: Salmon, D. M. (1996) Thrombosis Research 84, 213-216.

Question: With “Methyl O-2,3-di-O-methyl-4-O-<<12-N-<N-(3-keto-benzenesulfonyl)-4-O-{4-(4-piperidinyl)-butyl}-L-tyrosine>-12-aza-3,6,9-trioxa-dodecyl>>-6-O-sulfo-alpha-D-glucopyranosyl-(1->4)-O-2,3-di-O-methyl-beta-D-glucopyranuronosyl-(1->4)-O-2,3,6-tri-O-sulfo-alpha-D-glucopyranosyl-(1->4)-O-2,3-di-O-methyl-alpha-L-idopyranuronosyl-(1>4)-3-O-methyl-2,6-di-O-sulfo-alpha-D-glucopyranoside octakis sodium salt [XIV]” as the substance, how does the Anti-Xa activity ([1]; substrate S-2222, calibrated against standard heparin) read?
Answer: 735 ± 107 U/mg

Question: What about the Anti-Xa activity ([1]; substrate S-2222, per nmol (from U/mg and Mw)) of the same substance?
Answer: 1.68 U/nmol

Question: And the IC50 [2]?
Answer: 630 nM
